Data: patent US9018370B2, “Derivatives of uridine phosphate and their uses in protein binding assays” (King's College London of Strand, priority 2009, dated 2015)

Experiments:
[1] = Lakowicz, Principles of Fluorescence Spectroscopy; cited from earlier work
[2] = Quantum yield determination of nucleotide derivatives; type: physicochemical; settings: for Quantum yield of reference compounds determined with this protocol: in H2O; for Q.Y.: in water
Description: Nucleotide derivatives were serially diluted in H2O (10, 20, 30, 40 and 50 μM for absorbance measurements, and 0.2, 0.4, 0.6, 0.8, 1 μM for fluorescence measurements), and UV absorbance and fluorescence emission (with λmax absorbance=λem fluorescence) were recorded for all samples. To determine quantum yields, for each absorbance and fluorescence spectrum the area under the curve (AUC) was calculated by numerical integration, applying the mid-point rule. For each compound, AUCabs and AUCem were then plotted over compound concentration according to AUCabs=A×[conc]+B and AUCem=A′×[conc]+B′. From these linear plots, the gradients A and A′ were extracted, and for each compound the specific quantum yield φs, under these experimental conditions, was calculated as the ratio A′/A. Quantum yields determined with this protocol for two reference compounds, 2-aminopyridine and L-tryptophan (2-aminopyridine: 0.60; L-tryptophan: 0.14) were in exact agreement with literature values. The quantum yields for reference compounds were used to calculate the general quantum yield φg for each nucleotide analogue, according to φg=φref×(A′/A)/(A′/A)ref.
Fluorescent uracil nucleosides and (sugar-)nucleotides can be obtained by connecting a known chromophore/fluorophore via an electronically nonconjugating linker to the natural uracil base (Sinkeldam et al. Chem. Rev. 2010, 110, 2579-2619). The photophysical features of the resulting nucleoside/(sugar-)nucleotide analogue are usually very similar to that of the parent fluorophore (Sinkeldam et al. Chem. Rev. 2010, 110, 2579-2619). In contrast, extending the uracil by electronically conjugating the base to additional aromatic moieties typically generates a new chromophore with unique, and somewhat unpredictable, photophysical characteristics (Sinkeldam et al. Chem. Rev. 2010, 110, 2579-2619). To precisely measure the intensity of the fluorescence emitted by the brightest fluorophores described above, we determined their quantum yield. These measurements were performed in water following the procedure reported by Nighswander-Remper and the results are shown in Table B below. Quantum yield determinations confirmed that 2p and 2q display the highest fluorescence and are 10-fold brighter than any other nucleotide analogues with a compact aryl- or heteroaryl substituent in position 5 that have been reported to date (Sinkeldam et al. Chem. Rev. 2010, 110, 2579-2619). That 2p and 2q absorb and fluoresce at long wavelength is an attractive feature, which makes these fluorophores suitable for analyses in biological environments. Additionally, we found the intensity of the fluorescence emission is conserved for UDP and UTP analogues, thereby providing attractive fluorescence probes candidates for fluorimetric assays.

Ggta1 = molecular target: T1, Ggta1 (Bos taurus, UniProt P14769); test: Variation in fluorescence of 3d and analogues upon incubation with Ggta1; type: binding, B. taurus; settings: various concentrations of Ggta1
T1 construct: made in house
T1 sequence (P14769 whole entry): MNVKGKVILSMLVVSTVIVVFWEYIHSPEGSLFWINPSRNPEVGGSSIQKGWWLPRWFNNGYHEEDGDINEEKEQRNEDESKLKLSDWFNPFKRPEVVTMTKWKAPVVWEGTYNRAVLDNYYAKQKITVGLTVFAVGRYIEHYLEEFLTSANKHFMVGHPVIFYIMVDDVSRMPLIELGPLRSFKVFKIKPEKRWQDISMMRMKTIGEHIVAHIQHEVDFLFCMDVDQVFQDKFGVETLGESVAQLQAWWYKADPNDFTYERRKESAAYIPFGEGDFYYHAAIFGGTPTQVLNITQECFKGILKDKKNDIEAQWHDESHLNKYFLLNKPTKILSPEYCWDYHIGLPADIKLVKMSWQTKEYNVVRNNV
Description: (§1) Fluorescence intensity measurements with 3d were carried out in black NUNC F96 MicroWell polystyrene plates on a BMG labtech PolarStar microplate reader equipped with a 350±5 nm excitation filter and a 430±5 nm emission filter. The number of flashes per wells was set to 50 (gain: 2240; position delay: 0.2 s). Prior to readings, plates were incubated, with shaking, for 10 min at 30° C. (double orbital, shaking width 4 mm, 10 seconds). Results were visualised with BMG labtech data analysis software Mars 1.10 and analysed with GraFit version 5.0.10.
(§2) Samples were pipetted into the requisite wells of a black NUNC 96-well plate as shown in tables E1-E3, at the end of the description. Key: B—Tris/HCl buffer (50 mM, pH 7; 40 μL); F—fluorophore 3d (200 nM in Tris/HCl buffer; 40 μL); M—MnCl2 (10 mM in Tris/HCl buffer; […]); E—galactosyltransferase (in Tris/HCl buffer; 40 μL); I—inhibitor (in Tris/HCl buffer; 40 μL). Total volume/well: 200 μL. All experiments were carried out in triplicate, unless indicated otherwise.
We also carried out an experiment on 3d (numbered 18e in FIG. 4) and different analogues of 3d, namely the nucleoside 5h, the nucleotide 6r and nucleoside diphosphate 22d, to show their variation in fluorescence on binding to Ggta1.
The synthesis of 5h, 6r and 22d are shown below. The protocol for the microplate/fluorescence experiments was the same as in Example 2.

[3] = Absorbance and fluorescence spectra of 5-R-UMP analogues; type: physicochemical; settings: for λmax: absorbance
Description: UV absorbance spectra were recorded on a PerkinElmer Lambda 25 UV-Vis spectrometer at ambient temperature in FarUV quartz cells (path length 1.0 cm). Fluorescence spectra were recorded on a PerkinElmer LS-45 spectrometer at ambient temperature in a quartz micro fluorescence cell (path length 1.0 cm).

[4] = Influence of microenvironment (solvent) on fluorescence of 2q′; type: physicochemical
Description: Fluorescence intensity measurements were performed in NUNC F96 MicroWell polystyrene plates on a BMG labtech PolarStar plate reader equipped with a 350±5 nm absorbance filter and with a 430±5 nm emission filter. 10 μM solutions of 2q′ were prepared in HPLC grade water, acetonitrile and isopropanol. Sample assays with various solvent mixtures were incubated during 2 minutes at 30° C. prior to fluorescence measurement. Data were analysed with the help of GraFit version 5.0.10.
After identifying intense 5-arylated UMP fluorophores and understanding the origin of their fluorescence we investigated the influence of the microenvironment on the fluorescence signal. In order to generate a variety of microenvironments, we prepared 200 nM solutions of 5-(5-formyl-2-thiophene)-uridine 2q′ (the nucleoside analogue of 2q) in solvents varying in polarity index: (P): water (P=9), acetonitrile (MeCN, P=5.8) and isopropanol (IPA, P=3.9). We subsequently recorded absorbance and fluorescence signals for these three solutions (see FIG. 6).

GTB (H. sapiens) = test: Titration of 3d with other GTs; type: binding
Description: as §1, §2
(§3) To assess the generality of this new GT assay principle, we next repeated the above experiments with another four GalTs, including mammalian and bacterial enzymes with different acceptor specificities and reaction mechanisms. […] The experimental protocol was the same as in Example 2. The amino acid sequences for four GalTs used in the experiment, i.e. LgtC (N. meningitidis), Ggta1 (B. taurus), GTB (H. sapiens) and AA(Gly)B GTB mutant (H. sapiens) or references where the sequence listings can be found are given above. The amino acid sequence for β4GalT (H. pylori) can be found above and in the following reference: Endo, T., Koizumi, S., Tabata, K. & Ozaki, A. Glycobiology 10, 809-813 (2000).

LgtC (N. meningitidis) = test: Titration of 3d with other GTs; type: binding
Description: as §1, §2, §3

β4GalT (H. pylori) = test: Titration of 3d with other GTs; type: binding
Description: as §1, §2, §3

[5] = test system: AA(Gly)B GTB mutant (H. sapiens); test: Titration of 3d with other GTs; type: binding
Description: as §1, §2, §3

[6] = Quantum yield determination of UDP-Gal derivatives 3a-d; type: physicochemical
Description: To determine quantum yields, for each absorbance and fluorescence spectrum the area under the curve (AUC) was calculated by numerical integration, applying the mid-point rule. For each compound, AUCabs and AUCfluo were then plotted over compound concentration according to AUCabs=A×[conc]+B (equation 1) and AUCfluo=A′×[conc]+B′ (equation 2). […] The quantum yields for reference compounds were used to calculate the general quantum yield φg for each compound 3a-d, according to φg=φref×(A′/A)/(A′/A)ref.

B. taurus α-1,3-GalT [7] = molecular target: T2, B. taurus α-1,3-GalT (Bos taurus, UniProt P14769); test: Microplate fluorescence titration / ligand-displacement assay with fluorophore 3d; type: binding
T2 construct: made in house
T2 sequence (P14769 whole entry): as above
Description: The fluorescence emission of a given fluorophore is influenced by its microenvironment, although different fluorophores vary their fluorescence emissions to different extents on changing microenvironment.
as §1, §2

B. taurus α-1,3-GalT [8] = molecular target: T2, B. taurus α-1,3-GalT; test: Donor kinetics of UDP-Gal derivatives with GalT, HPLC; type: biochemical; settings: MnCl2 20 mM, MOPS pH 7.2, 37° C.
Description: J. Am. Chem. Soc. 122, 261-1269 (2000); Rich, J. R.; Szpacenko, A.; Palcic, M. M. & Bundle, D. R. Glycosyltransferase-Catalyzed Synthesis of Thiooligosaccharides. Angew. Chem. Int. Ed. […] ChemBioChem 9, 1632-1640 (2008). […] (total volume 100 μL, all concentrations are final concentrations). The reactions were stopped by cooling in dry ice. Samples were analysed immediately by HPLC on a PerkinElmer Series 200 machine equipped with a Supelcosil LC-18-T column (5 μm, 25 cm×4.6 mm), a column oven (set to 30° C.), and a diode array detector. Each sample (injection volume 40 μL) was eluted at 1.5 mL/min with a gradient of methanol (10-30%) against 0.5 M phosphate buffer (adjusted to pH 8 with triethylamine). […] Km and vmax values were determined by fitting data points to a Michaelis-Menten curve using GraFit 5.0.10.

a-1.4-GalT = test: Titration of C-glycosidic fluorophore 2 with GalT and competition with ligands; type: binding
[9] = molecular target: T3, Streptococcus thermophilus UDP-Gal 4′-epimerase (GalE) (Streptococcus thermophilus, UniProt P21977); test: GalE-catalysed conversion of UDP-Gal into UDP-Glc, HPLC assay; type: biochemical
T3 construct: purchased Calbiochem
T3 sequence (P21977 whole entry): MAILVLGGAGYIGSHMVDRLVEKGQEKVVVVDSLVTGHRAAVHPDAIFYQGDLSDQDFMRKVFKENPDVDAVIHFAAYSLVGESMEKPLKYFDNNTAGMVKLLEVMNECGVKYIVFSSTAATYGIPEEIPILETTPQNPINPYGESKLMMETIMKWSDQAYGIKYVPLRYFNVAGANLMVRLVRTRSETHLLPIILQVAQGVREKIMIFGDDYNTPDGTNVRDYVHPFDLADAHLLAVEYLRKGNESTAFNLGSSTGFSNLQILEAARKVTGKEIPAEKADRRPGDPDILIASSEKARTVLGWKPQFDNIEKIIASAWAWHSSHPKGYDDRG
Description: The reactions were stopped by cooling in dry ice. […] Km and vmax values were determined by fitting data points to a Michaelis-Menten curve using GraFit 5.0.10. […] All experiments were carried out in triplicate.

**Q.** Which “Quantum yield, literature values of reference compounds” value [1] does the source give for Nc1ccccn1 [2-aminopyridine, reference compound] here?
**A.** 0.60

**Q.** And the “Quantum yield of reference compounds determined with this protocol” value [2]?
**A.** 0.60

**Q.** With O=Cc1ccc(-c2cn([C@@H]3O[C@H](COP(=O)(O)O)[C@@H](O)[C@H]3O)c(=O)[nH]c2=O)s1 [2q, 5-(5-Formylthien-2-yl)-uridine-5′-monophosphate] as the compound, how does the “Variation in fluorescence on binding to Ggta1” value (Ggta1) read?
**A.** varied their intensity of luminescence with Ggta1

**Q.** What about the “Fluo Intensity at 100 μM” value ([3]; 100 μM) of the same compound?
**A.** >650 a.u.

**Q.** And the λmax [3]?
**A.** 351 nm

**Q.** And the Emmax ([3]; fluorescence emission)?
**A.** 434 nm

**Q.** And the “Brightness relative to any other reported 5-aryl/heteroaryl nucleotide analogues” value [2]?
**A.** 10 fold

**Q.** And the Q.Y. [2]?
**A.** 0.26

**Q.** For O=Cc1ccc(-c2cn([C@@H]3O[C@H](CO)[C@@H](O)[C@H]3O)c(=O)[nH]c2=O)s1 [2q′, 5-(5-Formylthien-2-yl)-uridine], which “Fluorescence in water relative to MeCN” value ([4]; 200 nM solutions) is on record?
**A.** 20 fold

**Q.** What about the “Absorbance on change of solvent” value ([4]; water, MeCN, IPA) of the same compound?
**A.** unaffected by a change in microenvironment

**Q.** For O=Cc1ccc(-c2cn([C@@H]3O[C@H](COP(=O)(O)OP(=O)(O)O[C@H]4O[C@H](CO)[C@H](O)[C@H](O)[C@H]4O)[C@@H](O)[C@H]3O)c(=O)[nH]c2=O)s1 [3d, 5-(5-Formylthien-2-yl)-UDP-α-D-galactose], which “Fluorescence of 3d with enzyme” value (GTB (H. sapiens)) is on record?
**A.** strong fluorescence quenching effect

**Q.** What about the “Fluorescence of 3d with enzyme” value (LgtC (N. meningitidis)) of the same compound?
**A.** strong fluorescence quenching effect

**Q.** And the “Fluorescence of 3d with enzyme” value (β4GalT (H. pylori))?
**A.** strong fluorescence quenching effect

**Q.** What about the “Fluorescence of 3d with enzyme” value [5] of the same compound?
**A.** strong fluorescence quenching effect

**Q.** And the “Variation in fluorescence on binding to Ggta1” value (Ggta1)?
**A.** varied their intensity of luminescence with Ggta1

**Q.** And the “Fluorescence (in words)” value [6]?
**A.** much more strongly fluorescent

**Q.** And the “Quantum yield relative to that of 3a” value [6]?
**A.** 25 fold

**Q.** And the “Quantum yield relative to that of the parent UDP-Gal” value [6]?
**A.** ~6000 fold

**Q.** And the Quantum yield ([6]; in H2O)?
**A.** 0.26

**Q.** What about the “Fluorescence of 3d upon titration with enzyme” value (B. taurus α-1,3-GalT [7]; in the absence of Mn^2+) of the same compound?
**A.** little or no fluorescence quenching

**Q.** And the “Fluorescence of 3d upon titration with enzyme” value (B. taurus α-1,3-GalT [7]; in the presence of MnCl2, 200 nM ligand, Tris pH 7)?
**A.** quenched in the presence of enzyme in a concentration-dependent manner

**Q.** What about the Km (B. taurus α-1,3-GalT [8]) of the same compound?
**A.** 13 ± 1 µM

**Q.** What about the kcat (B. taurus α-1,3-GalT [8]) of the same compound?
**A.** 0.0019 s⁻¹

**Q.** What does the source list for N[C@@H](Cc1c[nH]c2ccccc12)C(=O)O [L-tryptophan, reference compound]?
**A.** Quantum yield, literature values of reference compounds [1]: 0.14; Quantum yield of reference compounds determined with this protocol [2]: 0.14

**Q.** Which results are given for O=c1ccn([C@@H]2O[C@H](COP(=O)(O)OP(=O)(O)O)[C@@H](O)[C@H]2O)c(=O)[nH]1 [UDP, reference compound]?
**A.** Fluorescence of 3d upon titration with competitive ligand (B. taurus α-1,3-GalT [7]; 3d and α-1.3-GalT present): restored; Reversal of fluorescence quenching of 2 by titration with ligand (a-1.4-GalT): reversed

**Q.** What does the source list for O=c1ccn([C@@H]2O[C@H](COP(=O)(O)O)[C@@H](O)[C@H]2O)c(=O)[nH]1 [UMP, reference compound]?
**A.** λmax [3]: 262 nm; Q.Y. [2]: 5e-05; Reversal of fluorescence quenching of 2 by titration with ligand (a-1.4-GalT): to a lesser extent

**Q.** For O=Cc1ccc(-c2cn([C@@H]3O[C@H](COP(=O)(O)OP(=O)(O)CC[C@H]4O[C@H](CO)[C@H](O)[C@H](O)[C@H]4O)[C@@H](O)[C@H]3O)c(=O)[nH]c2=O)s1 [compound 2, Bis(sodium) [2-(α-D-galactopyranosyl)-ethylphosphono]-5-(5-formylthien-2-yl)uridin-5′-yl phosphate], which Ki ([9]; Dixon plot, 232 μM UDP-Gal) is on record?
**A.** 426 µM

**Q.** And the “Use as substrate by GalE” value ([9]; co-incubation, HPLC)?
**A.** does not use 2 as a substrate

**Q.** And the “Fluorescence of 2 upon titration with GalT” value (a-1.4-GalT)?
**A.** quenched upon titration with a bacterial GalT
